Data from paper PMC11990524, “Design and Synthesis of Novel 6-(Substituted phenyl)-[1,3]dioxolo[4′,5′:4,5]benzo[1,2-d]thiazole Compounds as Tyrosinase Inhibitors: In Vitro and In Vivo Insights” (Molecules, 2025).

Key:
[1] = ABTS radical scavenging assay; conditions: 100 μM
Protocol: The ABTS^+ radical solution was obtained by mixing ABTS and potassium persulfate, an oxidizing reagent, and test samples (1–13 and Trolox [positive control]; final concentration: 100 μM) were added to determine their ABTS^+ radical scavenging ability by measuring the optical density at 732 nm.
To prepare ABTS^•+ stock solution, equal amounts of ABTS (14 mM aqueous solution) and K2S2O8 (4.9 mM aqueous solution) were mixed and stored in the dark at 18 °C for 15 h. The prepared ABTS^•+ solution was diluted in ethanol to adjust the absorbance to 0.7 ± 0.01 at 732 nm. The test samples (Trolox [positive control] and compounds 1–13) were dissolved in a cosolvent of ethanol and DMSO (10:1 [v/v]). The adjusted ABTS^•+ solution (90 μL) and test sample (10 μL) were added to each well of a 96-well plate, and the plate was stored in a dark place at 18 °C for 2 min. The optical density was measured at 732 nm every min for 10 min. The test sample solutions were tested at a final concentration of 100 μM. The percentage of radical scavenging activity was calculated as follows: % Radical scavenging activity = 100 × [(Absc − Abst)/Absc], where Abst and Absc are optical densities of the test sample and control, respectively.

[2] = DPPH radical scavenging assay; conditions: 500 μM; 30 min in the dark
Protocol: DPPH radical scavenging activity was determined by mixing the DPPH solution with compounds 1–13, leaving it in the dark at 20 °C for 30 min, and measuring the optical density at 517 nm. Ascorbic acid (AA) was used as a positive control to compare the scavenging activity. All test samples were used at 500 μM.
An aliquot (20 μL) of test sample (compounds 1–13 and ascorbic acid [positive control]; 5 mM) in DMSO and 180 μL DPPH solution (0.2 mM) in methanol were mixed in each well of a 96-well plate. The mixed solution was kept in the dark at 18 °C for 30 min. A VE microplate reader was used to measure the optical density of each well at 517 nm.

[3] = biological target: T1, mushroom tyrosinase (Agaricus bisporus, UniProt C7FF04); assay: Mushroom tyrosinase inhibitory activity assay (L-dopa or L-tyrosine as substrate); format: biochemical
Protocol: In the inhibition experiments, L-dopa and L-tyrosine were used as enzyme substrates.
The plate was incubated at 37 °C for 30 min, and absorbance of dopachrome formation was recorded spectrophotometrically at 475 nm using a VersaMax® Elisa (VE) microplate reader (Molecular Devices, San Jose, CA, USA) to determine tyrosinase inhibition activity. A VE microplate reader was used in all subsequent experiments to measure optical density. All experiments were carried out independently three times.
Target sequence in this assay (C7FF04 2-392): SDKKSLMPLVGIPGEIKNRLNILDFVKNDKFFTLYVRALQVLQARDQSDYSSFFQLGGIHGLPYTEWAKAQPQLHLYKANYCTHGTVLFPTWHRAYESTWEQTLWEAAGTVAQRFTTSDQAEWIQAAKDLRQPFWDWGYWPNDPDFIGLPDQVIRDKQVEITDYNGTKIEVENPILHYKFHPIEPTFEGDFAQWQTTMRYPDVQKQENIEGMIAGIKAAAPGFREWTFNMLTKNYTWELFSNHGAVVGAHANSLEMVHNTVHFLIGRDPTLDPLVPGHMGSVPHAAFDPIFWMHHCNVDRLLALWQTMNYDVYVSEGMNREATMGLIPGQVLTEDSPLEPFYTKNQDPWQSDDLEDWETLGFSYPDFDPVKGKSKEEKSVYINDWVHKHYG

[4] = biological target: T1, mushroom tyrosinase; assay: Kinetic analysis of mushroom tyrosinase (Lineweaver–Burk and Dixon plots); format: biochemical; design: purchased Sigma-Aldrich; conditions: substrate L-dopa
Protocol: Therefore, the mechanism of inhibition was investigated using mushroom tyrosinase. At various concentrations of L-dopa, the initial dopachrome production rate was investigated at four different concentrations of 5 (0, 20, 40, and 80 μM) and 9 (0, 0.5, 1.0, and 2.0 μM).
The Lineweaver–Burk plot for each compound was re-plotted by plotting the reciprocal of the initial dopachrome production rate vs. the […] to create a Dixon plot for each compound (Figure 3C,D for compounds 5 and 9, respectively). […] The absolute value of the x-coordinate of the merged point represents the inhibition constant (Ki), which indicates the potency of the inhibitor.
Kinetic analysis of mushroom tyrosinase was performed by recording the initial dopachrome formation rate in the presence of compounds 5 and 9. […] The optical density of dopachrome production in each well was recorded at 475 nm at 5 min intervals for 30 min. Compounds were tested at 80, 40, 20, and 0 μM for 5 and at 2, 1.0, 0.5, and 0 μM for 9, respectively. Potting the inverse of the substrate concentration vs. the reciprocal of the initial dopachrome production rate generated Lineweaver–Burk plots.
Target sequence in this assay (C7FF04 1-392): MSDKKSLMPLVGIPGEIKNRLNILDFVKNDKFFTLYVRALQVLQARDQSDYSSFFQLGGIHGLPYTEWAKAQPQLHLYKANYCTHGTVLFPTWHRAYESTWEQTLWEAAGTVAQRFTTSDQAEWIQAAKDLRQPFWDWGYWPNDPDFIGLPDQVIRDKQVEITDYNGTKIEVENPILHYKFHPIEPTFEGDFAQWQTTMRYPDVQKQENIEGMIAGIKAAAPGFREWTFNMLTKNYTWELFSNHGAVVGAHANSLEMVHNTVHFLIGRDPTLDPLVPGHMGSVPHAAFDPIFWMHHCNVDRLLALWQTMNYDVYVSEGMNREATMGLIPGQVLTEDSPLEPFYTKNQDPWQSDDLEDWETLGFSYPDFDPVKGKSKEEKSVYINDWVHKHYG

[5] = tested on: B16F10 cells; assay: Cellular melanin content assay using B16F10 cells; format: cell-based, murine
Protocol: After 72 h of incubation, the melanin content was evaluated by measuring the optical density at 405 nm.
The plate was incubated in a CO2 incubator for 1 h. Each well was treated with stimulators (α-MSH and IBMX; 1 μM and 200 μM, respectively) and incubated in a CO2 incubator for 72 h. The incubated cells were rinsed twice with PBS (pH 7.4). 1N–NaOH solution (100 μL) was added to each well and warmed at 60 °C for 1 h. The lysates were transferred to each well of a 96-well plate. The optical density was measured at 405 nm.

Structure (SMILES): Oc1ccc(-c2nc3cc4c(cc3s2)OCO4)c(O)c1 [Compound 9, 4-([1,3]Dioxolo[4′,5′:4,5]benzo[1,2-d]thiazol-6-yl)benzene-1,3-diol]
- ABTS^+ radical scavenging activity (inhibition rate) [1]: 96%
- DPPH radical scavenging (inhibition) [2]: 85%
- IC50 values regardless of the substrate used (in words) ([3]; L-dopa and L-tyrosine): nanomolar
- inhibition at 2 µM ([3]; substrate L-dopa, 2.0 μM, read-out: Inhibition (%) measured at 2.0 μM (converted)): 76.1%
- inhibition at 0.4 µM ([3]; substrate L-tyrosine, 0.4 μM, read-out: Inhibition (%) measured at 0.4 μM (converted)): 71.8%
- Ki ([4]; Dixon plot, read-out: inhibition constant (Ki)): 380 nM
- mechanism of inhibition ([4]; Lineweaver–Burk plot): competitive inhibitors
- melanin content ([5]; 1, 2, and 5 μM, IBMX 200 μM plus α-MSH 1 μM, 72 h): significantly reduced the stimulator-induced melanin contents
- melanin production inhibition compared with kojic acid ([5]; same concentration (5 μM)): inhibited melanin production more potently than kojic acid
